Measurements from PMC8875392, “Design and Characterization of Myristoylated and Non-Myristoylated Peptides Effective against Candida spp. Clinical Isolates” (International Journal of Molecular Sciences, 2022).
In brackets after ≈: the same amount, converted by molar mass. Like-named read-outs stand apart in the source and are kept apart here. Where a SMILES comes first, the peptide text is derived from it. The star is where a group is joined. Myristoyl = CCCCCCCCCCCCCC(=O)*

How the values were obtained:
[1] = tested on: C. auris clinical isolates; type: cell-based, Candida auris; settings: for MIC: CLSI broth microdilution, RPMI 1640
Description: (§1) The antifungal activity of AMPs was determined against 50 clinical isolates, 10 for each of the following Candida species: C. albicans, C. tropicalis, C. glabrata, C. parapsilosis, and C. auris. The latter were derived from patients with positive blood cultures in four hospitals in India, with known resistance profiles to fluconazole, voriconazole, and echinocandins. Yeast cells were grown in Brain Heart Infusion (BHI) medium (Sigma-Aldrich, Gillingham, UK) for 16 h at 37 °C in a 150-rpm orbital shaker. Cells were then sub-inoculated in a fresh BHI medium and grown to an optical density (OD) of 0.3. The turbidity of the inoculum was adjusted to 0.5 McFarland and diluted 1:500 in RPMI 1640 broth, corresponding to around […].
(§2) Minimal inhibitory concentrations (MICs) were determined by Broth microdilution susceptibility tests, according to The Clinical and Laboratory Standards Institute (CLSI) international guidelines. A fungal suspension of 0.5 MacFarland was diluted 1:500 in RPMI 1640 broth and incubated in 96 multi-well plates containing AMPs at different concentrations ranging from 0.125 to 256 μg/mL. In this range of concentration, lipopeptides were completely soluble. […] The MIC90 represents the value at which ≥90% of the strains within a test population were inhibited.

[2] = tested on: C. tropicalis clinical isolates; type: cell-based, Candida tropicalis; settings: for MIC90: clinical isolates, 16 h; for MIC: CLSI broth microdilution, RPMI 1640
Description: as §1, §2

[3] = tested on: C. albicans clinical isolates; type: cell-based, Candida albicans; settings: 16 h
Description: as §1, §2

[4] = tested on: C. glabrata clinical isolates; type: cell-based, Candida glabrata; settings: 16 h
Description: as §1, §2

[5] = tested on: C. parapsilosis clinical isolates; type: cell-based, Candida parapsilosis
Description: as §1, §2

[6] = Membrane partition, Trp-1 fluorescence upon titration with LUVs; type: binding; settings: for KX (mole fraction partition constant): peptide 1.0 μM, 20 mM phosphate pH 7.4, 150 mM NaCl, 0.8 mM EDTA, 298 K, Trp fluorescence, quadruplicate; for ΔG: ΔG = −RT lnKx; for Selectivity Ratio: ratio between partition constants in anionic (POPC/POPG) and zwitterionic (POPC) membranes
Description: To quantify the interaction of different lipidated and non-lipidated peptides with membrane mimetic systems, we measured the intrinsic fluorescence of Trp-1 upon partition with LUVs (large unilamellar vesicles) of different compositions. Briefly, the mixtures of POPC/POPG (70%/30% w/w) LUVs were used to mimic anionic membranes and POPC only to mimic zwitterionic membranes. […] The mole fraction partition constants Kx were calculated from the partition isotherms as previously described. Figure 2 reports the partition isotherms for the titration of myristoylated and non-myristoylated peptides with POPC and POPC/POPG vesicles.
The values of Kx for all peptides are reported in Table 2 together with ΔG values, calculated using the expression ΔG = −RT lnKx, and the selectivity ratio defined as the ratio between partition constants determined in anionic and zwitterionic membranes. Higher values of the selectivity ratio represent a preference of the peptide for anionic vesicles, while lower values indicate a preference for the zwitterionic one.
The lipids POPC (1-palmitoyl-2-oleoyl-sn-glycero-3-phosphocholine) and POPG (1-palmitoyl-2-oleoyl-sn-glycero-3-phosphoglycerol) were purchased from Avanti Polar Lipids (Alabaster, AL, USA) and used without further purification. LUVs (Large Unilamellar Vesicles) were prepared as previously reported. Briefly, appropriate amounts of lipids were dissolved in chloroform/methanol 9:1. The solvent was then removed by rotary evaporation and samples were placed overnight under a high vacuum. The lipid film was then hydrated by adding 1 mL of buffer (20 mM phosphate buffer at pH 7.4 with 150 mM NaCl and 0.8 mM EDTA) and then subjected to 5 freeze–thaw cycles and vortexed. The multilamellar vesicles (MLVS) were extruded through a polycarbonate membrane with pores of 100 nm by an Avanti polar mini extruder, and the obtained LUVs were used within 48 h of preparation. LUVs were composed of 100% POPC and a 70%/30% (w/w) combination of POPC/POPG. The final concentration of the lipid was 10 mM.
All the steady-state fluorescence measurements were carried out using a Perkin Elmer LS55 fluorescence spectrophotometer. All the experiments were conducted at 298 K in a thermostatic cell holder and in 20 mM phosphate buffer at pH 7.4 containing 0.8 mM EDTA and 150 mM NaCl unless otherwise specified.
Since all peptides contain tryptophan, fluorescence spectroscopy is an appropriate tool for studying these molecules. Peptide partitioning between buffer and lipid vesicles was monitored by measuring the increase in tryptophan fluorescence upon the addition of LUVs. Trp fluorescence spectra were recorded with λexc = 295 nm and scanning the emission between 305 and 400 nm. Measurements were carried out with a cross-oriented configuration of polarizers (polem = 0° and polexc = 90°). Briefly, a 1.0 μM solution of the peptide was titrated with LUVs of different compositions (POPC 100% and 70%/30% POPC/POPG) as previously described. The background effects of vesicles and buffer were subtracted from each spectrum. All the fluorescence emissions were corrected for dilution. Mole fraction partition coefficients Kx were calculated from the fraction of the partitioned peptide fp as previously described. The fraction of the partitioned peptide fp is given by the following equation [53] (6) fp=Kx[L]/[W]+Kx[L] where Kx is the mole fraction partition constant, and [L] and [W] are the molar concentrations of lipids and water, respectively.

[7] = isolate Candida parapsilosis 8, CLSI broth microdilution, RPMI 1640
[8] = isolate Candida parapsilosis 9, CLSI broth microdilution, RPMI 1640
[9] = isolate Candida parapsilosis 10, CLSI broth microdilution, RPMI 1640

| SMILES | MIC ([1]; isolate Candida Auris 1) [µg/mL] | MIC ([1]; isolate Candida Auris 2) [µg/mL] | MIC ([1]; isolate Candida Auris 3) [µg/mL] | MIC ([1]; isolate Candida Auris 4) [µg/mL] | MIC ([1]; isolate Candida Auris 5) [µg/mL] | MIC ([1]; isolate Candida Auris 6) [µg/mL] | MIC ([1]; isolate Candida Auris 7) [µg/mL] | MIC ([1]; isolate Candida Auris 8) [µg/mL] | MIC ([1]; isolate Candida Auris 9) [µg/mL] | MIC ([1]; isolate Candida Auris 10) [µg/mL] | MIC90 [2] [µg/mL] | MIC ([2]; isolate Candida tropicalis 1) [µg/mL] | MIC ([2]; isolate Candida tropicalis 2) [µg/mL] | MIC ([2]; isolate Candida tropicalis 3) [µg/mL] | MIC ([2]; isolate Candida tropicalis 4) [µg/mL] | MIC ([2]; isolate Candida tropicalis 5) [µg/mL] | MIC ([2]; isolate Candida tropicalis 6) [µg/mL] | MIC ([2]; isolate Candida tropicalis 7) [µg/mL] | MIC ([2]; isolate Candida tropicalis 8) [µg/mL] | MIC ([2]; isolate Candida tropicalis 9) [µg/mL] | also measured |
| --- | --- | --- | --- | --- | --- | --- | --- | --- | --- | --- | --- | --- | --- | --- | --- | --- | --- | --- | --- | --- | --- |
| CCCCCCCCCCCCCC(=O)N[C@@H](Cc1c[nH]c2ccccc12)C(=O)N[C@@H](CCCNC(=N)N)C(=O)NCC(=O)N[C@H](C(=O)N[C@H](C(=O)N[C@@H](CCCCN)C(=O)N[C@H](C(=O)N[C@H](C(=O)N[C@@H](CCCCN)C(=O)N[C@@H](CCCCN)C(=O)N[C@H](C(=O)O)C(C)C)C(C)C)C(C)C)[C@@H](C)O)[C@@H](C)CC [Myr-B] (Myristoyl-WRGITKVVKKV-OH; C-terminus assumed) | 8 (≈ 5.25 µM) | 8 (≈ 5.25 µM) | 16 (≈ 10.5 µM) | 32 (≈ 21 µM) | 32 (≈ 21 µM) | 16 (≈ 10.5 µM) | 16 (≈ 10.5 µM) | 16 (≈ 10.5 µM) | 32 (≈ 21 µM) | 32 (≈ 21 µM) | 8 (≈ 5.25 µM) | 8 (≈ 5.25 µM) | 8 (≈ 5.25 µM) | 8 (≈ 5.25 µM) | 8 (≈ 5.25 µM) | 8 (≈ 5.25 µM) | 8 (≈ 5.25 µM) | 8 (≈ 5.25 µM) | 8 (≈ 5.25 µM) | 8 (≈ 5.25 µM) | MIC90 ([1]; clinical isolates, 16 h): 20 µM (≈ 30.5 µg/mL); MIC (Range) ([1]; clinical isolates, 16 h): 16 to 32 µg/mL; MIC ([2]; isolate Candida tropicalis 10): 8 µg/mL (≈ 5.25 µM); MIC [3]: 16 µg/mL (≈ 10.5 µM); MIC90 [3]: 16 µg/mL (≈ 10.5 µM); MIC90 [4]: 32 µg/mL (≈ 21 µM); MIC (Range) [4]: 16 to 32 µg/mL; MIC ([5]; clinical isolates, 16 h): 32 µg/mL (≈ 21 µM); MIC90 ([5]; clinical isolates, 16 h): 32 µg/mL (≈ 21 µM); MIC [5, 7]: 32 µg/mL (≈ 21 µM); MIC [5, 8]: 32 µg/mL (≈ 21 µM); MIC [5, 9]: 32 µg/mL (≈ 21 µM); KX (mole fraction partition constant) ([6]; POPC LUVs): (4.7 ± 0.6) × 10^5; ΔG ([6]; POPC LUVs): -7.737 kcal/mol; KX (mole fraction partition constant) ([6]; POPC/POPG 70%/30% LUVs): (1.7 ± 0.2) × 10^6; ΔG ([6]; POPC/POPG LUVs): -8.499 kcal/mol; Selectivity Ratio [6]: 3.62 |
| CCCCCCCCCCCCCC(=O)N[C@@H](Cc1c[nH]c2ccccc12)C(=O)N[C@H](C(=O)N[C@H](C(=O)N[C@@H](CCCCN)C(=O)N[C@@H](CCCCN)C(=O)N[C@H](C(=O)N[C@@H](CCCCN)C(=O)NCC(=O)N[C@@H](CC(C)C)C(=O)N[C@@H](CC(C)C)C(=O)N[C@@H](CCCCN)C(=O)O)C(C)C)C(C)C)C(C)C [Myr-C] (Myristoyl-WVVKKVKGLLK-OH; C-terminus assumed) | 16 (≈ 10.6 µM) | 16 (≈ 10.6 µM) | 32 (≈ 21.2 µM) | 32 (≈ 21.2 µM) | 64 (≈ 42.4 µM) | 32 (≈ 21.2 µM) | 32 (≈ 21.2 µM) | 32 (≈ 21.2 µM) | 16 (≈ 10.6 µM) | 32 (≈ 21.2 µM) | 16 (≈ 10.6 µM) | 16 (≈ 10.6 µM) | 16 (≈ 10.6 µM) | 16 (≈ 10.6 µM) | 16 (≈ 10.6 µM) | 16 (≈ 10.6 µM) | 16 (≈ 10.6 µM) | 16 (≈ 10.6 µM) | 16 (≈ 10.6 µM) | 16 (≈ 10.6 µM) | MIC ([2]; isolate Candida tropicalis 10): 16 µg/mL (≈ 10.6 µM); MIC [3]: 32 µg/mL (≈ 21.2 µM); MIC90 [3]: 32 µg/mL (≈ 21.2 µM); MIC [4]: 32 µg/mL (≈ 21.2 µM); MIC90 [4]: 32 µg/mL (≈ 21.2 µM); MIC ([5]; clinical isolates, 16 h): 32 µg/mL (≈ 21.2 µM); MIC90 ([5]; clinical isolates, 16 h): 32 µg/mL (≈ 21.2 µM); MIC [5, 7]: 32 µg/mL (≈ 21.2 µM); MIC [5, 8]: 32 µg/mL (≈ 21.2 µM); MIC [5, 9]: 32 µg/mL (≈ 21.2 µM); KX (mole fraction partition constant) ([6]; POPC LUVs): (4.9 ± 0.3) × 10^5; ΔG ([6]; POPC LUVs): -7.753 kcal/mol; KX (mole fraction partition constant) ([6]; POPC/POPG 70%/30% LUVs): (1.2 ± 0.2) × 10^6; ΔG ([6]; POPC/POPG LUVs): -8.293 kcal/mol; Selectivity Ratio [6]: 2.45 |
